Among the test systems are MDA-MB-435; IGROV-1; K562; M14; MCF7; BT-549; UACC-62; SW-620; HCC 2998; EKVX; NCI/ADR-RES; MDA-MB-231; SF-268; HT-29; SK-MEL-28; COLO 205; KM12; MOLT-4; SNB-75; SK-OV-3.
Assay in all cases: NCI-60 cell line screen, 48 h

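Each compound was tested at five concentrations against cells in 96-well plates for 48 hours. GI50 = concentration required for 50% inhibition of growth.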 The source made the active and inactive calls. Rule as the data show it: active = GI50 up to about 1.1 µM and inactive = higher.

Consider `COc1cc(C2CC(C)(O)Oc3cc4c(cc32)OCO4)cc(OC)c1OC` (stereo not given), for which the GI50 in the assay on MDA-MB-435 was 0.169 µM (active); in the assay on IGROV-1 it was 0.668 µM (active); in the assay on K562 it was 0.386 µM (active); with M14, 0.466 µM (active); with MCF7 it was 0.321 µM (active); in the assay with BT-549 it was 0.583 µM (active). The GI50 with UACC-62 is 0.23 µM (active); in the assay on SW-620, 0.33 µM (active); in the assay with HCC 2998, 1.31 µM (inactive); in the assay with EKVX, 5.36 µM (inactive); in the assay with NCI/ADR-RES it was 0.233 µM (active); in the assay on MDA-MB-231 it was 0.252 µM (active). For the same compound, the GI50 is 0.962 µM (active) in the assay with SF-268; 0.334 µM (active) in the assay with HT-29; 0.569 µM (active) in the assay on SK-MEL-28; 0.419 µM (active) in the assay with COLO 205; 0.191 µM (active) in the assay with KM12; 0.451 µM (active) in the assay with MOLT-4.

Consider `CC(CCN)(CCN)[N+](=O)[O-]`, for which the GI50 with MDA-MB-435, in the assay on IGROV-1, in the assay on K562, with M14, with MCF7 and in the assay on BT-549 was > 100 µM (inactive) throughout. Besides, the GI50 in the assay with UACC-62, with SW-620, with SNB-75, in the assay on SK-OV-3, in the assay on EKVX and in the assay with NCI/ADR-RES was > 100 µM (inactive) throughout. The GI50 with MDA-MB-231, in the assay with SF-268, in the assay on HT-29, with SK-MEL-28, in the assay on COLO 205 and with KM12 was > 100 µM (inactive) throughout. For the same compound, the GI50 with MOLT-4 was > 100 µM (inactive).

Regarding `N=C(CCl)NC1CN2CCC1CC2` (stereo not given), the GI50 was > 100 µM (inactive) in the assay on MDA-MB-435; > 100 µM (inactive) in the assay on IGROV-1; > 100 µM (inactive) in the assay with K562; > 100 µM (inactive) in the assay on M14; 42.3 µM (inactive) in the assay on MCF7; > 100 µM (inactive) with BT-549. Further, the GI50 was > 100 µM (inactive) in the assay on UACC-62; 68.7 µM (inactive) in the assay with SW-620; > 100 µM (inactive) in the assay on SNB-75; > 100 µM (inactive) in the assay with SK-OV-3; 67.5 µM (inactive) in the assay on EKVX; > 100 µM (inactive) with NCI/ADR-RES. Besides, the GI50 is > 100 µM (inactive) in the assay with MDA-MB-231; 92.9 µM (inactive) with SF-268; 48.3 µM (inactive) in the assay with HT-29; > 100 µM (inactive) in the assay on SK-MEL-28; 27.4 µM (inactive) with COLO 205; > 100 µM (inactive) in the assay with KM12. Moreover, in the assay with MOLT-4, the GI50 was 39.7 µM (inactive).

As for `COc1c(-c2nc3ccc(N4CCN(C)CC4)cc3[nH]2)cc(OC)c2[nH]c(COC(C)=O)nc12`, the GI50 in the assay on MDA-MB-435 is 37.8 µM (inactive); in the assay with IGROV-1, > 100 µM (inactive); in the assay with K562, 56.6 µM (inactive); in the assay with M14, 19.6 µM (inactive); in the assay with MCF7 it was 38.7 µM (inactive); in the assay on BT-549, > 100 µM (inactive). The GI50 in the assay on UACC-62 is > 100 µM (inactive); in the assay on SW-620 it was 40.2 µM (inactive); in the assay with SNB-75 it was 9.4 µM (inactive); in the assay with SK-OV-3 it was 63.7 µM (inactive); with EKVX, 98.4 µM (inactive); in the assay with NCI/ADR-RES it was > 100 µM (inactive). Besides, the GI50 in the assay on MDA-MB-231 was 34.2 µM (inactive); with SF-268, 94.8 µM (inactive); in the assay on HT-29, 36.7 µM (inactive); in the assay on SK-MEL-28, > 100 µM (inactive); in the assay with COLO 205, 50.1 µM (inactive); with KM12, 31.3 µM (inactive). In addition, the GI50 in the assay on MOLT-4 was 45 µM (inactive).

For the origin of these results see ChEMBL document CHEMBL1201862, “PubChem BioAssay data set” (2004).
